# Assay results as given in paper PMC2784364, “VX-166: a novel potent small molecule caspase inhibitor as a potential therapy for sepsis” (Critical Care, 2009).
# Like-named read-outs stand apart in the source and are kept apart here.
# How the values were obtained:
# [1] = system: IL-2 release from peripheral blood mononuclear cells; experiment: IL-2 release from anti-CD3/CD28 stimulated PBMC; assay type: cell-based, human; details: at 100 μM
# Procedure: PBMC from healthy donors were isolated as described above. To the wells of a 96-well plate previously coated with 1.5 μg/ml anti-hCD3 (Serotec, Kidlington, UK), 5 × 10^5 cells/ml and 1 μg/ml anti-hCD28 (BD Biosciences, Oxford, UK) were added. Plates were then incubated for 24 hours in the presence or absence of VX-166 or the calcineurin inhibitor FK506 (Merck Biosciences Ltd., Nottingham, UK). IL-2 release into the supernatant was subsequently determined by ELISA (R&D Systems, Abingdon, UK) following the manufacturer's instructions.
# Jurkat cells = experiment: Staurosporine induced apoptosis in Jurkat cells, Annexin V; assay type: cell-based; details: Human Jurkat cell line/Annexin V, n = 4, read-out: IC50, inhibition of apoptosis
# Procedure: Jurkat cells were obtained from LGC Standards (Teddington, UK) and were grown in RPMI 1640, 10% FCS, 2 mM L-glutamine, 100 U/ml penicillin and 0.1 mg/ml streptomycin (all from Sigma Aldrich Ltd., Poole, UK) at 37°C in 5% CO2/95% humidity. Receptor- or stress-mediated apoptosis (2 × 10^5 cells/ml) was induced by addition of either anti-Fas antibody CH-11 (10 ng/ml, Millipore UK Ltd., Watford, UK), TNF-α (20 ng/ml, R&D Systems, Abingdon, UK) with cycloheximide (112 ng/ml, Sigma Aldrich Ltd., Poole, UK) or staurosporine (350 ng/ml, Sigma Aldrich Ltd., Poole, UK). VX-166 was diluted into DMSO (10 mM), further diluted in media and added at a range of concentrations. Cells were then incubated for 18 hours. Apoptotic cells were then labelled with Cy5-conjugated Annexin-V (BD Biosciences, Oxford, UK) and detected using a FMAT™ 8100 Fluorimetric Microassay Technology Reader (Applied Biosystems, Warrington, UK). For the experiments using anti-Fas antibody, apoptosis was additionally measured using a Cell Death Detection ELISA kit (Roche Diagnostics Ltd., Lewes, UK) following the manufacturer's instructions.
# [2] = system: IL-1β release from peripheral blood mononuclear cells; experiment: IL-1β release from LPS-treated PBMC; assay type: cell-based
# Procedure: Peripheral blood mononuclear cells (PBMC) from healthy donors were isolated by Ficoll-Paque gradient centrifugation from buffy coats obtained from the National Blood Transfusion Service (Bristol, UK). For IL-1β release, 5 × 10^5 cells/ml were then stimulated with 50 ng/ml lipopolysaccharide (LPS) from Escherichia coli (Sigma-Aldrich Ltd., Poole, UK) in the presence or absence of VX-166 and incubated for 18 hours. Secretion of IL-1β into the supernatant was determined by ELISA (R&D Systems, Abingdon, UK) following the manufacturer's instructions. For IL-18 release, 7.5 × 10^5 cells/ml were stimulated with 6.25 × 10^-4% (w/v) Staphylococcus aureus cell suspension (SAC; Sigma-Aldrich Ltd., Poole, UK) in the presence or absence of VX-166 and incubated overnight. The IL-18 content in the supernatants was quantified by ELISA (Caltag-MedSystems Ltd., Buckingham, UK) following the manufacturer's instructions. In both assays PBMC viability was assessed after the 18 hours incubation time using MTS assay (Promega UK Ltd., Southampton, UK) to ensure that the reduction in cytokine release was not caused by a cytotoxic effect of the compound.
# Sprague-Dawley rats [3] = experiment: Caecal ligation and puncture in the rat, survival; assay type: in vivo; details: rat CLP; for survival at day 10: control 40%
# Procedure: (§1) CLP studies were performed in accordance with the National Institutes of Health guidelines for the use of experimental animals and were approved by the Institutional Animal Care and Use Committee of the Feinstein Institute for Medical Research. Adult male Sprague-Dawley rats (weighing 275 to 325 g, Charles River Laboratories, Wilmington, MA, USA) were fasted overnight then anaesthetised with isoflurane. The caecum was exposed via a 2 cm midline incision. It was ligated just distal to the ileocaecal valve, then punctured twice with an 18-gauge needle and gently squeezed to release a small amount of faecal material to ensure patency of the perforation sites before the abdominal incision was closed. Sham-operated rats underwent the same procedure with the exception that the caecum was neither ligated nor punctured. Animals received subcutaneous fluids (30 ml/kg saline) immediately after the procedure. No antibiotics were administered. In the 7 and 10 day survival studies animals were re-anaesthetised 20 hours after CLP, the perforated caecum was removed and the abdominal cavity washed twice with 40 ml of warm, sterilised saline. The abdominal cavity was closed, anaesthetics withdrawn and rats returned to their cages where they were allowed free access to food and water. In the 20 hour endpoint study the caecum was not removed. In this study blood samples were collected by cardiac puncture under terminal anaesthesia into heparinised syringes for the subsequent measurement of IL-1β and bacterial endotoxin, while the thymus was removed for analysis of thymocyte apoptosis.
# Alzet® mini-osmotic pumps (Durect Corporation, Cupertino, CA, USA) were used for continuous delivery of VX-166 or vehicle (25% dimethyl sulphoxide: 75% propylene glycol). Pumps with a 2 ml reservoir capacity and a 10 μl//h delivery rate were used in all studies. These pumps are designed to deliver for seven days and so would have expired two to three days before the end of the 10 day survival studies. The mini-osmotic pumps were filled with VX-166 (5 to 25 mg/ml or vehicle) and primed overnight at 37°C prior to subcutaneous implantation in anaesthetised rats. The 25 mg/ml concentration of VX-166 equates to an approximate dose of 0.83 mg/kg/h for a 300 g rat. The pumps were implanted immediately following CLP, except in the delayed onset of treatment study in which pumps were implanted either immediately following CLP (0 hour) or 3 or 8 hours following CLP. Sham-operated rats were implanted with vehicle filled mini-osmotic pumps.
# Sprague-Dawley rats [4] = experiment: CLP rat, thymus weight; assay type: in vivo; details: 25 mg/ml pump, P < 0.01
# Procedure: as §1, with “In this study blood samples were collected by cardiac puncture under terminal anaesthesia into heparinised syringes for the subsequent measurement of IL-1β and bacterial endotoxin, while the thymus was removed for analysis of thymocyte apoptosis.” left out
smiles,measurement,setting,value
CCC(C(=O)NC(CC(=O)O)C(=O)COc1c(F)c(F)cc(F)c1F)n1cccc(NC(=O)OC)c1=O (stereo not shown) [VX-166],inhibition of T-cell activation in vitro,[1],partial inhibition
same,IC50,Jurkat cells,255 ± 155 nM
same,IC50,"[2]; Homo sapiens, PBMC, 18 h, n = 4, read-out: IC50 ± SD, inhibition of IL-1β release",< 500 nM
same,IC50,"[2]; LPS-treated human PBMC, 18 hours, n = 4, read-out: IC50 ± SD, inhibition of IL-1β release",260 ± 120 nM
same,"survival over 10 days compared with vehicle control, second study","Sprague-Dawley rats [3]; 25 mg/ml mini-osmotic pump immediately after CLP, n = 16",improved survival
same,survival at day 7,"Sprague-Dawley rats [3]; 25 mg/ml mini-osmotic pump implanted immediately following CLP, n = 12, control 25%",67%
same,survival at day 10,"Sprague-Dawley rats [3]; 25 mg/ml pump started 0 hours after CLP, n = 12, P = 0.026",83%
same,survival at day 10,"Sprague-Dawley rats [3]; 25 mg/ml pump started 3 hours after CLP, n = 12, P = 0.009",92%
same,survival at day 10,"Sprague-Dawley rats [3]; 25 mg/ml pump started 8 hours after CLP, n = 12, P = 0.19",66%
same,thymus weight of surviving rats on day 10 vs control,Sprague-Dawley rats [4],significantly higher weight
